One block for each compound: values may come before it.
How the values were obtained:
[1] = biological target: Death-associated protein kinase 3 (Homo sapiens) (UniProt O43293); assay: Selectivity interaction (Kinase panel (DSF assay)) EUB0001559a DAPK3
[2] = biological target: Fibroblast growth factor receptor 1 (Homo sapiens, UniProt P11362); assay: Selectivity interaction (KinomeScan (DiscoverX)) EUB0000618a FGFR1; conditions: at 10 µM
[3] = biological target: Receptor-type tyrosine-protein kinase FLT3 (Homo sapiens) (UniProt P36888); assay: Selectivity interaction (KinomeScan (DiscoverX)) EUB0000607a FLT3; conditions: at 10 µM
[4] = biological target: T1, Serine/threonine-protein kinase Nek9 (Homo sapiens) (UniProt Q8TD19); assay: Selectivity interaction (ActivX KiNativ screen (ex vivo kinase selectivity in human PBMCs)) EUB0001619a NEK9; type: cell-based; conditions: PBMC, at 1 µM
T1 sequence (whole entry): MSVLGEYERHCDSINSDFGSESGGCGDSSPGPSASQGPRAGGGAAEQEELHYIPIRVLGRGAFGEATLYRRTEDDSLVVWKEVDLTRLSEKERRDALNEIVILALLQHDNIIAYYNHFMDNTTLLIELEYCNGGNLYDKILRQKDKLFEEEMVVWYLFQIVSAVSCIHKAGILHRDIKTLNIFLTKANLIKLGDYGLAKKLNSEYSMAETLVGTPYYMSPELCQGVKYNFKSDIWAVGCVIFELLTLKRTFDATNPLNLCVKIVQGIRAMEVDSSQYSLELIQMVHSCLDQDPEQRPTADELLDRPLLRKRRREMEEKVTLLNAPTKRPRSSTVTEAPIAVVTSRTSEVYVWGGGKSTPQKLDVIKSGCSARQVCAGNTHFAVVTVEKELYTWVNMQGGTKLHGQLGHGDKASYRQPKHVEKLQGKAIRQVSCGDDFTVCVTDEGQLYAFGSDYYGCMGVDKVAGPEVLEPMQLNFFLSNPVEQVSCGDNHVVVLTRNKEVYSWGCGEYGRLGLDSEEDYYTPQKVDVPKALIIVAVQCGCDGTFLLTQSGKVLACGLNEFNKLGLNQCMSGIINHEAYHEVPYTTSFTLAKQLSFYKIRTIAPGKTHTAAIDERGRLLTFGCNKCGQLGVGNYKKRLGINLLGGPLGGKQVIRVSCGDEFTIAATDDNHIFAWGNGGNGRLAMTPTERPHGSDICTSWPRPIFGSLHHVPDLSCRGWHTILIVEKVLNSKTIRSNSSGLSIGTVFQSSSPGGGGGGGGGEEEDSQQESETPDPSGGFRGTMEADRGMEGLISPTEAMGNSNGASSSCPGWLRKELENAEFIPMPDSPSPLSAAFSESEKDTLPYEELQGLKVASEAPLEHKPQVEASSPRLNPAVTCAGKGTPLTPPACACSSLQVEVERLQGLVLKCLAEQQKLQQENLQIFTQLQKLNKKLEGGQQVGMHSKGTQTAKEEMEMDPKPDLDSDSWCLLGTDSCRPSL

[5] = biological target: Cyclin-dependent kinase 18 (Homo sapiens) (UniProt Q07002); assay: Selectivity interaction (ActivX KiNativ screen (kinase selectivity in THP-1 cell lysates)) EUB0000639a CDK18; type: subcellular; conditions: lysate, at 0.2 µM
[6] = biological target: Calcium/calmodulin-dependent protein kinase kinase 2 (Homo sapiens) (UniProt Q96RR4); assay: Selectivity interaction (KinomeScan (DiscoverX)) EUB0000229b CAMKK2; conditions: at 10 µM
[7] = biological target: RAC-alpha serine/threonine-protein kinase (Homo sapiens, UniProt P31749); assay: Selectivity interaction (KinomeScan (DiscoverX)) EUB0001049a AKT1; conditions: at 1 µM
[8] = biological target: T2, Phosphatidylinositol 4,5-bisphosphate 3-kinase catalytic subunit delta isoform (Homo sapiens) (UniProt O00329); assay: Selectivity interaction (KinomeScan (DiscoverX)) EUB0000666a PIK3CD; conditions: at 10 µM
T2 sequence (whole entry): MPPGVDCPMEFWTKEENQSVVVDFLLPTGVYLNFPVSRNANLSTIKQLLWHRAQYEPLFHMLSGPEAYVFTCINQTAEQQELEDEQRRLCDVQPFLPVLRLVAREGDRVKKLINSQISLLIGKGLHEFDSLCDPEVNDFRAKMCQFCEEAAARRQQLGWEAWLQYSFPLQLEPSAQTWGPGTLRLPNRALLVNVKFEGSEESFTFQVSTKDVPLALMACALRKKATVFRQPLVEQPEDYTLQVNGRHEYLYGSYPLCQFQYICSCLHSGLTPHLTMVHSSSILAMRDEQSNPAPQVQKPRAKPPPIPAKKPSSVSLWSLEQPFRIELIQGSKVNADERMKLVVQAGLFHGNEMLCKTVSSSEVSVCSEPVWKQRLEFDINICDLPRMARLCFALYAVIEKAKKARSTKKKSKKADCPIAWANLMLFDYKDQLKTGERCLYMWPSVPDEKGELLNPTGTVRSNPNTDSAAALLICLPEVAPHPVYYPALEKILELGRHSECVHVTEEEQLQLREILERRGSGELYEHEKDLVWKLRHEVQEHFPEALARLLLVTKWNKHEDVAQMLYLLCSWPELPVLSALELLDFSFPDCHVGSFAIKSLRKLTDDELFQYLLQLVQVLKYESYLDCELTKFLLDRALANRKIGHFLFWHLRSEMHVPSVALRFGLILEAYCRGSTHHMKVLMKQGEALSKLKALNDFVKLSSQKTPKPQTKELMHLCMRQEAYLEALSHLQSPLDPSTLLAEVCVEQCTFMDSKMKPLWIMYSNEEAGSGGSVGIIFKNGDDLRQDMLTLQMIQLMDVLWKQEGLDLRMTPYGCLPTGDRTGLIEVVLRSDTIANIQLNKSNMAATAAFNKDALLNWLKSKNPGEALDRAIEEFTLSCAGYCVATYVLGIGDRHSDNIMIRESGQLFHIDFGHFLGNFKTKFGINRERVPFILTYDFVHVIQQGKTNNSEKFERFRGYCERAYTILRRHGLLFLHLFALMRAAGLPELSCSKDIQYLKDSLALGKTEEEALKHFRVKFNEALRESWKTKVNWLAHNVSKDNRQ

Receptor-type tyrosine-protein kinase FLT3 (Homo sapiens), sequence (P36888 whole entry): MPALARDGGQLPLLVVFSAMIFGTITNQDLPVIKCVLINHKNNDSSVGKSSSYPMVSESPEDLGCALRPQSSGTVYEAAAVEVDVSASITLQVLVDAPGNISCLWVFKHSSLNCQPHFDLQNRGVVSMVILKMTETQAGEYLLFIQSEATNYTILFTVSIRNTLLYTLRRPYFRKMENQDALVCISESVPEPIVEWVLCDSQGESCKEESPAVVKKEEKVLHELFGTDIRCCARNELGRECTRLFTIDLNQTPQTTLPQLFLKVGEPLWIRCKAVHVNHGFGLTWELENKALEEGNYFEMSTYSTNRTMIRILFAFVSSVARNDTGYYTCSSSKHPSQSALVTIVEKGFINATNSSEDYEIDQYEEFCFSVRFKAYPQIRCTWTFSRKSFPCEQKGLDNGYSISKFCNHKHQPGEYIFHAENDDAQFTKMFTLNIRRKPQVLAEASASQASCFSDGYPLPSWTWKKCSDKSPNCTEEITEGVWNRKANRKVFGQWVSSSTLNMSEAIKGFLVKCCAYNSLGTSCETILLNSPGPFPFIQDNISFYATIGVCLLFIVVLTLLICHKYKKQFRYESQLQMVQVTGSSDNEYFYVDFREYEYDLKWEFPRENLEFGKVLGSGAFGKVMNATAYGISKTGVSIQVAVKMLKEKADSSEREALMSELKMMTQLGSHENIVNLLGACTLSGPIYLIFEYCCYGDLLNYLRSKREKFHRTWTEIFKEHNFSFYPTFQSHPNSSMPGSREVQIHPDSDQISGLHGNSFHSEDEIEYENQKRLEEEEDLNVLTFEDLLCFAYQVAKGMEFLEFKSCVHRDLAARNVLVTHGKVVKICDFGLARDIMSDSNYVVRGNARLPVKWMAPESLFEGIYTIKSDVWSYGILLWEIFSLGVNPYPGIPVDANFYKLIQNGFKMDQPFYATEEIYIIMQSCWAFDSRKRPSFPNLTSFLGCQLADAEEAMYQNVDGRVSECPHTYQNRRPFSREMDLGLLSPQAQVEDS
Calcium/calmodulin-dependent protein kinase kinase 2 (Homo sapiens), sequence (Q96RR4 2-588 limits assumed): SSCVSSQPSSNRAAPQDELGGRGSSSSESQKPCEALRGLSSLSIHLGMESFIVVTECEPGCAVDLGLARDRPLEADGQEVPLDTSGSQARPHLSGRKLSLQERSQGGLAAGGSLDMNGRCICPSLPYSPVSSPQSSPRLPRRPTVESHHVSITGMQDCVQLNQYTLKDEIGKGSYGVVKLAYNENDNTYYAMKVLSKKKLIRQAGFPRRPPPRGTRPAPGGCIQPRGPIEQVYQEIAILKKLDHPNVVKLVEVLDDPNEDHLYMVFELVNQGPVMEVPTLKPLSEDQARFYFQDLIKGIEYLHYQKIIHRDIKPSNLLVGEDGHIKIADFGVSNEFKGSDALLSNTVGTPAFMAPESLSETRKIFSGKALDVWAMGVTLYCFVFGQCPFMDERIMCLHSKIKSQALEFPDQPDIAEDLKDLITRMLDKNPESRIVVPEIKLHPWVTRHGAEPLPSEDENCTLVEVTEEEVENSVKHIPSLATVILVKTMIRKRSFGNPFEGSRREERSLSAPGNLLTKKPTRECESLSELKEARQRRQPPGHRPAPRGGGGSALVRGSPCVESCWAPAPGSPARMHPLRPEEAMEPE
Fibroblast growth factor receptor 1, sequence (P11362 22-822 limits assumed): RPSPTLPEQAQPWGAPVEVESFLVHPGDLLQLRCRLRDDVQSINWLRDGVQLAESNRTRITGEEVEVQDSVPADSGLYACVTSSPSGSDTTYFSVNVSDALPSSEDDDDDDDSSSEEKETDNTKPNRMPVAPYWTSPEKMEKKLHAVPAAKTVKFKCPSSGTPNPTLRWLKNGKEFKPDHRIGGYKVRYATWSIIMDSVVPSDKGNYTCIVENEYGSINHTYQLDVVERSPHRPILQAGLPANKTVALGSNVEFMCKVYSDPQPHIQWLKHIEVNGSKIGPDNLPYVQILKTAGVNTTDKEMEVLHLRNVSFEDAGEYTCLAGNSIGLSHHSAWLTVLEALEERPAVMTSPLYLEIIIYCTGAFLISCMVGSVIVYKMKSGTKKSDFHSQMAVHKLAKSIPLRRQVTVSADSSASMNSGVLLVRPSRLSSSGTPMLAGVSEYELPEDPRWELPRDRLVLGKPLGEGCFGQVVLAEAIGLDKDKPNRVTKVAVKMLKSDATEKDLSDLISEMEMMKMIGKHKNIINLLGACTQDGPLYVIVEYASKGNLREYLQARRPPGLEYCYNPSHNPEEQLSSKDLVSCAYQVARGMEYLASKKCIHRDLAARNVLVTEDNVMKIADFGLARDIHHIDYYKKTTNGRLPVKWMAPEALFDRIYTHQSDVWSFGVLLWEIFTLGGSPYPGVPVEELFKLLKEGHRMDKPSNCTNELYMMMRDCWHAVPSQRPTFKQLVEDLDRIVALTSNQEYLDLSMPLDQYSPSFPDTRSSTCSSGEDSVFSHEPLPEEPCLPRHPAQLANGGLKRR
Death-associated protein kinase 3 (Homo sapiens), sequence (O43293 whole entry, looked up): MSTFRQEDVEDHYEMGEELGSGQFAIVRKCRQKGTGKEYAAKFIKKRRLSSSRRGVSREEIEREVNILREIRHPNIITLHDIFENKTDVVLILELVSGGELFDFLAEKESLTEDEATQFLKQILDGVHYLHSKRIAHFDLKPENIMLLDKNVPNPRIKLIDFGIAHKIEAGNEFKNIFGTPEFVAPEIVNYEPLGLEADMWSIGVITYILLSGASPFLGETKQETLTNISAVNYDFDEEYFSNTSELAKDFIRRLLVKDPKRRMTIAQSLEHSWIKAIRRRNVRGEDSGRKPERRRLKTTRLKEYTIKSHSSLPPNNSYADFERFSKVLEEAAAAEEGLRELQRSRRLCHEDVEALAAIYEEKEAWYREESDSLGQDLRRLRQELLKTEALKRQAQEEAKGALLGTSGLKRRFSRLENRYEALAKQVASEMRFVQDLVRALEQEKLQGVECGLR
RAC-alpha serine/threonine-protein kinase, sequence (P31749 whole entry, canonical isoform): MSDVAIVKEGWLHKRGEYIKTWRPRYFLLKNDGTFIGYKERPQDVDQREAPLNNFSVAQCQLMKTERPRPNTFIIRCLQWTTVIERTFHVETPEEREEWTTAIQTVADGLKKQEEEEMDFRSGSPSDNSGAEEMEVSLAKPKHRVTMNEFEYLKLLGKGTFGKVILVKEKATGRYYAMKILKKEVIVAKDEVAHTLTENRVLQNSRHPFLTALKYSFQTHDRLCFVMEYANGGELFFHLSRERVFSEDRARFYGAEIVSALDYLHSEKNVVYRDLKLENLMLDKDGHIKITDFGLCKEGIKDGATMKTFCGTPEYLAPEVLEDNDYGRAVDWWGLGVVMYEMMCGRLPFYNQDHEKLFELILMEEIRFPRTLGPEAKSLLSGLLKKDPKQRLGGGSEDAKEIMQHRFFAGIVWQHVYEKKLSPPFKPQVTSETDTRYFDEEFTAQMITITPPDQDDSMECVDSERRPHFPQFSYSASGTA
Cyclin-dependent kinase 18 (Homo sapiens), sequence (Q07002 whole entry): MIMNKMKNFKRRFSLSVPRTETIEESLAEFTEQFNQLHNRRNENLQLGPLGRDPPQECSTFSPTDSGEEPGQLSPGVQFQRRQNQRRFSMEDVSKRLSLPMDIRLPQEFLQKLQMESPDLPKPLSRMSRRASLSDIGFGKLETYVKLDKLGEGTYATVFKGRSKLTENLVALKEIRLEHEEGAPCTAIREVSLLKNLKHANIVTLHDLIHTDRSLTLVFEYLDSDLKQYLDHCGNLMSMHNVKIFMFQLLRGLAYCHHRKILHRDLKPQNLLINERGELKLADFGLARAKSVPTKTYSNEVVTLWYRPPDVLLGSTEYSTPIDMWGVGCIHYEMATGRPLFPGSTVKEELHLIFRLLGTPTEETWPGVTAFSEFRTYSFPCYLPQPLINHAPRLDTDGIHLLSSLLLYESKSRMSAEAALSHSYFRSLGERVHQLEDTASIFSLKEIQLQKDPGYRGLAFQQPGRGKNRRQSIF

SMILES: CN(C(=O)c1cnn2cccnc12)c1cc2c(cc1N1CCOCC1)C(=O)N(C[C@@H](F)C(C)(C)O)C2
- dTM [1]: 0.2 K

SMILES: O[C@H]1CC[C@H](Nc2ncc3nc(Nc4c(F)cc(F)cc4F)n([C@H]4CCOC4)c3n2)CC1
- % of control [2]: 69%

SMILES: CNC(=O)Nc1ccc(-c2nc(N3CC4CCC(C3)O4)c3cnn(C4CCC5(CC4)OCCO5)c3n2)cc1
- % of control [3]: 77%

SMILES: N#Cc1cccc(-c2c[nH]c3ncnc(N4CCOCC4)c23)c1
- % of inhibition [4]: 3%

- % of inhibition [5]: 0.4%
SMILES: CC[C@@H]1[C@H](F)C(=O)N[C@@H]1COc1nccc2cc(C(N)=O)c(OC)cc12 [ZIMLOVISERTIB]

SMILES: COc1cc(N(C)c2ccnc3ccc(C(F)(F)F)cc23)cc(OC)c1OC
- % binding [6]: 85%

SMILES: COc1cc(Nc2nc(C)cc(-c3cnn4nc(OC)ccc34)n2)cc(C(F)(F)F)c1
- % of control [7]: 100%

SMILES: O=C(NOC[C@H](O)CO)c1ccc(F)c(F)c1Nc1ccc(I)cc1F
- % of control [8]: 40%
